Counter-ions that a name gives are not always drawn.
These compounds were tested against Btk enzyme (His-Btk) (Homo sapiens (Human), UniProt Q06187) (assay: Btk enzyme activity, IMAP fluorescence polarization assay (Assay Method A)). Settings: not given.
Chain of Btk enzyme (His-Btk) (Q06187 whole entry): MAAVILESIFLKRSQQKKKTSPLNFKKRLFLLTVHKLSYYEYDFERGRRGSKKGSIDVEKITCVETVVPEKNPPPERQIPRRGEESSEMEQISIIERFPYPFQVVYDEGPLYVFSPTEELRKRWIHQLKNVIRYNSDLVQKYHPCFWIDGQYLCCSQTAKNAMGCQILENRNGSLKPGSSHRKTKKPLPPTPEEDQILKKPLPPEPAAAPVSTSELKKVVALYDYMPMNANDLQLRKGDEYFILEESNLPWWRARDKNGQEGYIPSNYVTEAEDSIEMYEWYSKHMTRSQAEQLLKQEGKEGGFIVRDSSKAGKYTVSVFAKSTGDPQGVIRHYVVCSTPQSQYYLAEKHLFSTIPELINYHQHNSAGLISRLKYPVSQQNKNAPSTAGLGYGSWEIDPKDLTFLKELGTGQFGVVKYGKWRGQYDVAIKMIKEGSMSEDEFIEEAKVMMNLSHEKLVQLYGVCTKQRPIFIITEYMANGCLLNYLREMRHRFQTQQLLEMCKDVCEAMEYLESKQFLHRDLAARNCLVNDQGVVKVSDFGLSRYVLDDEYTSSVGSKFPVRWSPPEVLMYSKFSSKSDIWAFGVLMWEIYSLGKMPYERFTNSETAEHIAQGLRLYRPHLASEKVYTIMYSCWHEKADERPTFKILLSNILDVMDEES
`CCOC(=O)C1CC1CN1CCC[C@@H](c2nc(-c3ccc(C(=O)Nc4ccccn4)cc3)c3c(N)nccn23)C1` (stereo partly drawn) [Example 137, ethyl 2-(((R)-3-(8-amino-1-(4-(pyridin-2-ylcarbamoyl)phenyl)imidazo [1,5-a]pyrazin-3-yl)piperidin-1-yl)methyl) cyclopropanecarboxylate, TFA salt] was tested, and the EC50 was 0.1 to 1 µM. Compound `Nc1nccn2c([C@@H]3CCCN(S(=O)(=O)C4CC4)C3)nc(-c3ccc(C(=O)Nc4cc(C(F)(F)F)ccn4)cc3)c12` [Example 75, (R)-4-(8-amino-3-(1-(cyclopropylsulfonyl)piperidin-3-yl)imidazo[1,5-a]pyrazin-1-yl)-N-(4-(trifluoromethyl)pyridin-2-yl)benzamide] has an EC50 of under 0.01 µM. `Nc1nccn2c1c(-c1ccc(C(=O)Nc3nc4c(s3)COCC4)cc1)nc2[C@H]1CC[C@H](O)CC1` [Example 15, 4-(8-amino-3-((trans)-4-hydroxycyclohexyl)imidazo[1,5-a]pyrazin-1-yl)-N-(6,7-dihydro-4H-pyrano[4,3-d]thiazol-2-yl)benzamide] was tested, and the EC50 was 0.01 to 0.1 µM. In the case of `CN1CCc2nc(NC(=O)c3ccc(-c4nc([C@H]5CC[C@H](O)CC5)n5ccnc(N)c45)cc3)sc2C1` [Example 18, 4-(8-amino-3-((trans)-4-hydroxycyclohexyl)imidazo[1,5-a]pyrazin-1-yl)-N-(5-methyl-4,5,6,7-tetrahydrothiazolo[5,4-c]pyridin-2-yl)benzamide], the EC50 is reported as 0.1 to 1 µM. In the case of `CCN(CC)C(=O)C1CCCN(c2nc(-c3ccc(C(=O)Nc4ccccn4)cc3)c3c(N)nccn23)C1` (stereo not drawn) [Example 230, 1-(8-amino-1-(4-(pyridin-2-ylcarbamoyl)phenyl)imidazo[1,5-a]pyrazin-3-yl)-N,N-diethylpiperidine-3-carboxamide, TFA salt], the EC50 is reported as 0.01 to 0.1 µM. Work on `CC(C)CNC(=O)C(=O)N1CCC[C@@H](c2nc(-c3ccc(C(=O)Nc4cc(C5CC5)ccn4)cc3)c3c(N)nccn23)C1` [Example 112, (R)-4-(8-amino-3-(1-(2-(isobutylamino)-2-oxoacetyl)piperidin-3-yl)imidazo[1,5-a]pyrazin-1-yl)-N-(4-cyclopropylpyridin-2-yl)benzamide] yielded an EC50 of 0.01 to 0.1 µM. `C=CC1(C(=O)N2CCC[C@@H](c3nc(-c4ccc(C(=O)Nc5cc(C(F)(F)F)ccn5)cc4)c4c(N)nccn34)C2)COC1` [Example 91, (R)-4-(8-amino-3-(1-(3-vinyloxetane-3-carbonyl)piperidin-3-yl)imidazo[1,5-a]pyrazin-1-yl)-N-(4-(trifluoromethyl)pyridin-2-yl)benzamide] gave an EC50 of under 0.01 µM. `CC(CNC(=O)C1(C)COC1)c1nc(-c2ccc(C(=O)Nc3cc(C(F)(F)F)ccn3)cc2)c2c(N)nccn12` (stereo not drawn) [Example 131, N-(2-(8-amino-1-(4-(4-(trifluoromethyl)pyridin-2-ylcarbamoyl)phenyl)imidazo[1,5-a]pyrazin-3-yl)propyl)-3-methyloxetane-3-carboxamide] showed an EC50 of under 0.01 µM. Compound `COC(=O)c1cnc(N)c2c(-c3ccc(C(=O)Nc4cc(C(F)(F)F)ccn4)cc3)nc(C)n12` [Example 312, methyl 8-amino-3-methyl-1-(4-(4-(trifluoromethyl)pyridin-2-ylcarbamoyl)phenyl)imidazo[1,5-a]pyrazine-5-carboxylate] has an EC50 of 0.01 to 0.1 µM. `Nc1nccn2c(N3CCCC(C(=O)NCC4CC4)C3)nc(-c3ccc(C(=O)Nc4ccccn4)cc3)c12` (stereo not drawn) [Example 225, 1-(8-amino-1-(4-(pyridin-2-ylcarbamoyl)phenyl)imidazo[1,5-a]pyrazin-3-yl)-N-(cyclopropylmethyl)-piperidine-3-carboxamide, TFA sat] was tested, and the EC50 was 0.01 to 0.1 µM.

Same assay, conditions: read-out: EC50 Btk activity values - Assay Method A; IMAP-FP, 60 min pre-incubation, 5 μM ATP; class 100-1000 is given as ≧100 nM-<1 μM
With `Nc1nccn2c(C3CCCC3)nc(-c3ccc(C(=O)Nc4ccccn4)cc3)c12` [Example 45, 4-(8-amino-3-cyclopentylimidazo[1,5-a]pyrazin-1-yl)-N-(pyridin-2-yl)benzamide, TFA salt] the EC50 was under 0.01 µM. Compound `CCc1cnc(NC(=O)c2ccc(-c3nc([C@H]4CC[C@H](O)CC4)n4ccnc(N)c34)cc2)s1` [Example 4, 4-(8-amino-3-((trans)-4-hydroxycyclohexyl)imidazo[1,5-a]pyrazin-1-yl)-N-(5-ethylthiazol-2-yl)benzamide] has an EC50 of under 0.01 µM. Compound `CCOC(=O)N1CCC[C@@H](n2nc(-c3ccc(C(=O)Nc4cc(C(F)(F)F)ccn4)cc3)c3c(N)ncnc32)C1` [Example 273, (R)-ethyl 3-(4-amino-3-(4-(4-(trifluoromethyl)pyridin-2-ylcarbamoyl)phenyl)-1H-pyrazolo[3,4-d]pyrimidin-1-yl)piperidine-1-carboxylate] has an EC50 of under 0.01 µM. In the case of `Nc1nccn2c1c(-c1ccc(C(=O)Nc3nc4c(s3)CCCC4)cc1)nc2[C@H]1CC[C@H](O)CC1` [Example 8, 4-(8-amino-3-((trans)-4-hydroxycyclohexyl)imidazo[1,5-a]pyrazin-1-yl)-N-(4,5,6,7-tetrahydrobenzo[d]thiazol-2-yl)benzamide], the EC50 is reported as under 0.01 µM. In the case of `Nc1nccn2c1c(-c1ccc(C(=O)Nc3cc(C4CC4)ccn3)cc1)nc2[C@H]1CC[C@H](O)CC1` [Example 7, 4-(8-amino-3-((trans)-4-hydroxycyclohexyl)imidazo[1,5-a]pyrazin-1-yl)-N-(4-cyclopropylpyridin-2-yl)benzamide], the EC50 is reported as under 0.01 µM. `CCNC(=O)C1CCCN(c2nc(-c3ccc(C(=O)Nc4cc(C(F)(F)F)ccn4)cc3)c3c(N)nccn23)C1` (stereo not drawn) [Example 236, 1-(8-amino-1-(4-(4-(trifluoromethyl)pyridin-2-ylcarbamoyl)phenyl)imidazo[1,5-a]pyrazin-3-yl)-N-ethylpiperidine-3-carboxamide, TFA salt] gave an EC50 of under 0.01 µM. For `Nc1nccn2c([C@@H]3CCC[C@@H](NC(=O)C4CC4)C3)nc(-c3ccc(C(=O)Nc4cc(C(F)(F)F)ccn4)cc3)c12` (relative stereo) [Example 164, 4-(8-amino-3-((trans)-3-(cyclopropanecarboxamido)cyclohexyl)imidazo[1,5-a]pyrazin-1-yl)-N-(4-(trifluoromethyl)pyridin-2-yl)benzamide], the EC50 was under 0.01 µM. `CC1(C(=O)N2CCC[C@@H](n3nc(-c4ccc(C(=O)Nc5cc(C(F)(F)F)ccn5)cc4)c4c(N)ncnc43)C2)CCC1` [Example 266, (R)-4-(4-amino-1-(1-(1-methylcyclobutanecarbonyl)piperidin-3-yl)-1H-pyrazolo[3,4-d]pyrimidin-3-yl)-N-(4-(trifluoromethyl)pyridin-2-yl)benzamide] gave an EC50 of under 0.01 µM. With `CCCc1ccnc(NC(=O)c2ccc(-c3nc(C4CCOCC4)n4c(Cl)cnc(N)c34)cc2)c1` [Example 298, 4-(8-amino-5-chloro-3-(tetrahydro-2H-pyran-4-yl)imidazo[1,5-a]pyrazin-1-yl)-N-(4-propylpyridin-2-yl)benzamide] the EC50 was under 0.01 µM. In the case of `CCCc1ccnc(NC(=O)c2ccc(-c3nc([C@H]4CC[C@H](O)CC4)n4ccnc(N)c34)cc2)c1` [Example 3, 4-(8-amino-3-((trans)-4-hydroxycyclohexyl)imidazo[1,5-a]pyrazin-1-yl)-N-(4-propylpyridin-2-yl)benzamide], the EC50 is reported as under 0.01 µM. `COCCC(=O)N[C@@H]1CCCN(c2nc(-c3ccc(C(=O)Nc4cc(C(F)(F)F)ccn4)cc3)c3c(N)nccn23)C1` [Example 219, (R)-4-(8-amino-3-(3-(3-methoxypropanamido)piperidin-1-yl)imidazo[1,5-a]pyrazin-1-yl)-N-(4-(trifluoromethyl)pyridin-2-yl)benzamide] showed an EC50 of under 0.01 µM.

— patent US9718828B2 (MERCK SHARP & DOHME CORP., priority 2011, dated 2017)
